{"source": "patent US4428938A", "about": "“Peptides affecting the immune regulation and a process for their preparation” (Richter Gedeon Vegyeszeti Gyar Rt., priority 1981, dated 1984)", "key": {"[1]": {"test_system": "lymphocytes of patients suffering from rheumatoid arthritis", "test": "Active E-rosette test, lymphocytes of rheumatoid arthritis patients", "format": "cell-based, human", "settings": "for E-rosette forming activity, percentage amount of active lymphocytes: n = 4", "procedure": "(§1) The active E-rosette test was carried out according to a modified method of Wybran et al [Wybran et al: New Engl. J. Med. 292, 475 (1975)] by the lymphocites of healthy and autoimmune patients (rheumatoid arthritis and systemic lupus erythematosus). To 50 μl of a lymphocyte cell suspension 10^-3 -10^-11 moles/lit. solutions of the test material were added and the mixture was incubated in an atmosphere containing 5.0% of carbon dioxide, at 37° C. for 60 minutes. Thereafter 50 μlit. of a 1% sheep erythrocite suspension were added and the mixture was centrifuged at 1000 r.p.m. for 10 minutes followed by shaking with a modified Gallenkampf-shaker (shaking time: 30 sec, stroke: 8 cm, shaking frequency: 65/min.). The rosettes were fixed with a 0.1% glutaric aldehyde (50 μlit. for each tube, 3 min.). Lymphocytes bonding more than three sheep erythrocite were counted under a microscope and 4×100 cells were evaluated. The separated lymphocytes contain macrophages and polymorphonuclear cells (up to 10%) as an impurity. The number of the cells forming the rosettes was corrected by this value each case."}, "[2]": {"test_system": "antibody production against sheep erythrocyte", "test": "Effect on antibody production (Ceglowski's method), agglutination titer", "format": "in vivo, H. Wistar rats", "procedure": "(1) The effect on antibody production was tested according to Ceglowski's method [Ceglowski: Ann. N.Y. Acad. Sci. 249, 343 (1975)]. New-born H. Wistar rats were treated with single 25 μlit. doses of 4×10^-3 -4×10^-7 moles/lit. of the test material (9 animals for each dose) at the latest at the 12th hour after birth. The 14-day animals were then immunized with a sheep erythrocyte suspension administering 0.5 ml. of a 5% sheep erythrocyte suspension each animal intraperitoneally. On the 7th day after immunization the animals were decapitated. The blood of three animals was mixed and from the serum obtained (after centrifuging at 3000 r.p.m. for 10 minutes) the titers for antibodies were determined by the method of Takatsy [Takatsy: Acta Microbiol. Acad. Sci. Hung. 3, 191 (1955)]. The results are expressed in agglutination titers. The titer corresponds to the […] dilution of the serum in which agglutination can be observed."}, "[3]": {"test_system": "lymphocytes of healthy persons", "test": "Active E-rosette test, lymphocytes of healthy persons", "format": "cell-based, human", "settings": "for E-rosette forming activity, percentage amount of active lymphocytes: n = 4", "procedure": "as §1"}, "[4]": {"test_system": "plaque forming spleen cells (PFC)", "test": "Effect on plaque forming spleen cells (PFC)", "format": "in vivo, H. Wistar rats", "settings": "for In vivo effect on plaque forming spleen cells (in words): in all tested doses; for Ratio of the plaque formation produced by treated and untreated (control) animals: new-born animals", "procedure": "(2) The number of the cells producing a specific antibody was determined by the method of Canningham Handbook of Experimental Immunology (editor: D. M. Weir), 2nd Volume, p. 285, Blackwell, Oxford-London (1978). According to this method from the spleen cells of immunized animals, sheep erythrocyte suspension and complement a homogenous suspension was prepared and it was placed into a chamber suitable for forming a single cell layer. Around the spleen cells lytic areolas are formed, the number of which is identical with the number of the cells producing a specific antibody (plaque forming cells, PFC).\nThe test animals, not later than 12 hour after birth, were given a single i.p. dose of the test material. According to the method (1) three different doses of each substance were tested. On the 7th day after immunization the plaque formation of the spleen cells isolated from the animals was examined."}, "[5]": {"settings": "single 25 μlit. dose of 4·10^-3 moles/liter to new-born rats"}, "[6]": {"settings": "single 25 μlit. dose of 4·10^-5 moles/liter to new-born rats"}, "[7]": {"settings": "single 25 μlit. dose of 4·10^-7 moles/liter to new-born rats"}, "[8]": {"settings": "single i.p. dose 1.0·10^-4 mmoles"}, "[9]": {"settings": "single i.p. dose 1.0·10^-6 mmoles"}}, "note": "Residues, ends and D or L forms follow the SMILES beside them.", "data": [{"compound": "COC(=O)[C@@H](NC(=O)[C@H](CC(=O)O)NC(=O)[C@H](CCCCN)NC(=O)[C@@H](N)CCCNC(=N)N)C(C)C", "note": "[Arg--Lys--Asp--Val--OMe, Arg-Lys-Asp-Val-OMe] (H-RKDV-OMe)", "values": [{"measurement": "E-rosette forming activity, percentage amount of active lymphocytes", "setting": "[1]; 10^-3 moles/liter", "value": 31.2, "unit": "%"}, {"measurement": "E-rosette forming activity, percentage amount of active lymphocytes", "setting": "[1]; 10^-5 moles/liter", "value": 30.8, "unit": "%"}, {"measurement": "Effect on E-rosette forming activity (in words)", "setting": "[1]; 10^-7 moles/lit.", "value": "stimulating effect"}, {"measurement": "E-rosette forming activity, percentage amount of active lymphocytes", "setting": "[1]; 10^-7 moles/liter", "value": 32.4, "unit": "%"}, {"measurement": "E-rosette forming activity, percentage amount of active lymphocytes", "setting": "[1]; 10^-9 moles/liter", "value": 27.9, "unit": "%"}, {"measurement": "E-rosette forming activity, percentage amount of active lymphocytes", "setting": "[1]; 10^-11 moles/liter", "value": 26.5, "unit": "%"}, {"measurement": "Antibody production, agglutination titer (X ± S.D.)", "setting": "[2]; [5]", "value": "6.0 ± 1.7"}, {"measurement": "Antibody production, agglutination titer (X ± S.D.)", "setting": "[2]; [6]", "value": "4.5 ± 0.5"}, {"measurement": "Antibody production, agglutination titer (X ± S.D.)", "setting": "[2]; [7]", "value": "5.5 ± 2.6"}, {"measurement": "E-rosette forming activity, percentage amount of active lymphocytes", "setting": "[3]; 10^-3 moles/liter", "value": 26.8, "unit": "%"}, {"measurement": "E-rosette forming activity, percentage amount of active lymphocytes", "setting": "[3]; 10^-5 moles/liter", "value": 27.2, "unit": "%"}, {"measurement": "E-rosette forming activity, percentage amount of active lymphocytes", "setting": "[3]; 10^-7 moles/liter", "value": 29.4, "unit": "%"}, {"measurement": "E-rosette forming activity, percentage amount of active lymphocytes", "setting": "[3]; 10^-9 moles/liter", "value": 24.8, "unit": "%"}, {"measurement": "E-rosette forming activity, percentage amount of active lymphocytes", "setting": "[3]; 10^-11 moles/liter", "value": 23.8, "unit": "%"}]}, {"compound": "C[C@H](NC(=O)[C@H](CC(=O)O)NC(=O)[C@H](CCCCN)NC(=O)[C@@H](N)CCCNC(=N)N)C(=O)O", "note": "[Arg--Lys--Asp--Ala, Arg-Lys-Asp-Ala] (H-RKDA-OH)", "values": [{"measurement": "E-rosette forming activity, percentage amount of active lymphocytes", "setting": "[1]; 10^-3 moles/liter", "value": 28.6, "unit": "%"}, {"measurement": "E-rosette forming activity, percentage amount of active lymphocytes", "setting": "[1]; 10^-5 moles/liter", "value": 24.5, "unit": "%"}, {"measurement": "E-rosette forming activity, percentage amount of active lymphocytes", "setting": "[1]; 10^-7 moles/liter", "value": 25.8, "unit": "%"}, {"measurement": "E-rosette forming activity, percentage amount of active lymphocytes", "setting": "[1]; 10^-9 moles/liter", "value": 25.3, "unit": "%"}, {"measurement": "E-rosette forming activity, percentage amount of active lymphocytes", "setting": "[1]; 10^-11 moles/liter", "value": 27.9, "unit": "%"}, {"measurement": "In vivo effect on plaque forming spleen cells (in words)", "setting": "[4]", "value": "substantial increase"}, {"measurement": "Ratio of the plaque formation produced by treated and untreated (control) animals", "setting": "[4]; [8]", "value": 4.9}, {"measurement": "Ratio of the plaque formation produced by treated and untreated (control) animals", "setting": "[4]; [9]", "value": 1.9}, {"measurement": "Ratio of the plaque formation produced by treated and untreated (control) animals", "setting": "[4]; single i.p. dose 1.0·10^-8 mmoles", "value": 3.0}, {"measurement": "In vivo effect on the antibody production (in words)", "setting": "[2]; 4.10^-7 moles/lit.", "value": "significant stimulating activity"}, {"measurement": "Antibody production, agglutination titer (X ± S.D.)", "setting": "[2]; [5]", "value": "10.5 ± 1.5"}, {"measurement": "Antibody production, agglutination titer (X ± S.D.)", "setting": "[2]; [6]", "value": "11.5 ± 0.9"}, {"measurement": "Antibody production, agglutination titer (X ± S.D.)", "setting": "[2]; [7]", "value": "12.0 ± 0"}, {"measurement": "E-rosette forming activity, percentage amount of active lymphocytes", "setting": "[3]; 10^-3 moles/liter", "value": 41.2, "unit": "%"}, {"measurement": "E-rosette forming activity, percentage amount of active lymphocytes", "setting": "[3]; 10^-5 moles/liter", "value": 39.6, "unit": "%"}, {"measurement": "E-rosette forming activity, percentage amount of active lymphocytes", "setting": "[3]; 10^-7 moles/liter", "value": 40.8, "unit": "%"}, {"measurement": "E-rosette forming activity, percentage amount of active lymphocytes", "setting": "[3]; 10^-9 moles/liter", "value": 36.4, "unit": "%"}, {"measurement": "Effect on E-rosette forming activity (in words)", "setting": "[3]; 10^-11 moles/lit.", "value": "stimulating effect"}, {"measurement": "E-rosette forming activity, percentage amount of active lymphocytes", "setting": "[3]; 10^-11 moles/liter", "value": 40.5, "unit": "%"}]}, {"compound": "CC(C)[C@H](NC(=O)[C@H](CC(=O)O)NC(=O)[C@H](CCCCN)NC(=O)[C@H](C)N)C(=O)O", "note": "[Ala--Lys--Asp--Val, Ala-Lys-Asp-Val] (H-AKDV-OH)", "values": [{"measurement": "E-rosette forming activity, percentage amount of active lymphocytes", "setting": "[1]; 10^-3 moles/liter", "value": 25.3, "unit": "%"}, {"measurement": "E-rosette forming activity, percentage amount of active lymphocytes", "setting": "[1]; 10^-5 moles/liter", "value": 22.8, "unit": "%"}, {"measurement": "E-rosette forming activity, percentage amount of active lymphocytes", "setting": "[1]; 10^-7 moles/liter", "value": 22.5, "unit": "%"}, {"measurement": "E-rosette forming activity, percentage amount of active lymphocytes", "setting": "[1]; 10^-9 moles/liter", "value": 23.9, "unit": "%"}, {"measurement": "E-rosette forming activity, percentage amount of active lymphocytes", "setting": "[1]; 10^-11 moles/liter", "value": 20.3, "unit": "%"}, {"measurement": "In vivo effect on plaque forming spleen cells (in words)", "setting": "[4]", "value": "significant inhibiting activity"}, {"measurement": "Ratio of the plaque formation produced by treated and untreated (control) animals", "setting": "[4]; [8]", "value": 0.04}, {"measurement": "Ratio of the plaque formation produced by treated and untreated (control) animals", "setting": "[4]; [9]", "value": 0.01}, {"measurement": "E-rosette forming activity, percentage amount of active lymphocytes", "setting": "[3]; 10^-3 moles/liter", "value": 43.4, "unit": "%"}, {"measurement": "E-rosette forming activity, percentage amount of active lymphocytes", "setting": "[3]; 10^-5 moles/liter", "value": 34.9, "unit": "%"}, {"measurement": "Effect on E-rosette forming activity (in words)", "setting": "[3]; 10^-7 moles/lit.", "value": "significant stimulating effect"}, {"measurement": "E-rosette forming activity, percentage amount of active lymphocytes", "setting": "[3]; 10^-7 moles/liter", "value": 47.5, "unit": "%"}, {"measurement": "E-rosette forming activity, percentage amount of active lymphocytes", "setting": "[3]; 10^-9 moles/liter", "value": 39.1, "unit": "%"}, {"measurement": "E-rosette forming activity, percentage amount of active lymphocytes", "setting": "[3]; 10^-11 moles/liter", "value": 36.2, "unit": "%"}]}]}
